In US20220016060A1, “USE OF SODIUM 2-(3-PENTYLPHENYL)ACETATE IN THE TREATMENT OF ALSTRÖM SYNDROME” (LIMINAL BIOSCIENCES LIMITED, priority 2018, published 2022):
Several values for one entry are separate records, joined by “and”; a condition that tells them apart may be missing. Equal values may be shown once.

Experiments:
Assay type in all cases: in vivo, human
ALMS patients [1] = assay: Urinary kidney toxicity biomarkers (MCP-1, KIM-1, clusterin, cystatin C, osteopontin); details: analyte/creatinine ratio in urine; 800 mg daily oral
Description: The study was a Phase 2, single-centre, single-arm, open-label study of sodium 2-(3-pentylphenyl)acetate administered at a total daily oral dose of 800 mg for up to 72 weeks in subjects with ALMS was undertaken. The initial duration of the study was 24 weeks, and subjects were offered to enrol into an extension phase of […]. The schedule of study procedures for the enrolment, intervention, and assessments for participants is outlined in FIG. 1. Sodium 2-(3-pentylphenyl)acetate was formulated in soft gelatine capsules containing 200 mg of Sodium 2-(3-pentylphenyl)acetate (amorphous powder) per capsule, polyethylene glycol 400, National Formulary (NF), hydrochloric acid (for pH adjustment), and water. […] The levels of these markers was assessed at baseline and after 24 weeks of treatment with sodium 2-(3-pentylphenyl)acetate in ALMS patients, and the results are reported in Table 15.

ALMS patients [2] = assay: Cardiac MRI of myocardial fibrosis (SAX T1); details: for Change from Baseline Basal SAX T1, Mean / Change from Baseline Basal SAX T1, Median / Change from Baseline Mid SAX T1, Mean / Change from Baseline Mid SAX T1, Median: 800 mg daily oral
Description: (§1) The study was a Phase 2, single-centre, single-arm, open-label study of sodium 2-(3-pentylphenyl)acetate administered at a total daily oral dose of 800 mg for up to 72 weeks in subjects with ALMS was undertaken. The initial duration of the study was 24 weeks, and subjects were offered to enrol into an extension phase of 36 or 48 weeks. The schedule of study procedures for the enrolment, intervention, and assessments for participants is outlined in FIG. 1. Sodium 2-(3-pentylphenyl)acetate was formulated in soft gelatine capsules containing 200 mg of Sodium 2-(3-pentylphenyl)acetate (amorphous powder) per capsule, polyethylene glycol 400, National Formulary (NF), hydrochloric acid (for pH adjustment), and water. The effect of sodium 2-(3-pentylphenyl)acetate on heart histology in ALMS patients was also assessed by measuring short-axis (plane) longitudinal relaxation time (SAX T1). A decrease in relaxation time reflects an improvement in heart histology, such as a decrease of myocardial fibrosis, which reduces the risk of cardiac failure.

ALMS patients [3] = assay: Non-Alcoholic Fatty Liver Disease (NAFLD) Fibrosis Score; details: for Change from Baseline NAFLD Score with an FPG > 5.6 mmol/L, Mean (SD) / Change from Baseline NAFLD Score with an FPG > 5.6 mmol/L, Median / NAFLD Fibrosis Score in Subjects with an FPG > 5.6 mmol/L: 800 mg daily oral; for NAFLD Fibrosis Score in Subjects with an FPG > 5.6 mmol/L: individual subjects
Description: as §1, with “liver” for “heart”, “measuring” for “measuring short-axis (plane) longitudinal relaxation time (SAX T1). A decrease in relaxation time reflects an improvement in heart histology, such as a decrease of myocardial fibrosis, which reduces”, “Non-Alcoholic Fatty Liver Disease (NAFLD) Fibrosis Score. Increased NAFLD fibrosis score may be associated with hepatic dysfunction.” for “risk of cardiac failure.”

ALMS patients [4] = assay: Fasting insulin; details: for Change from Baseline Fasting Insulin, Mean / Change from Baseline Fasting Insulin, Median: 800 mg daily oral; for decrease of fasting insulin from baseline: Subject 826-001-003
Description: The study was a Phase 2, single-centre, single-arm, open-label study of sodium 2-(3-pentylphenyl)acetate administered at a total daily oral dose of 800 mg for up to 72 weeks in subjects with ALMS was undertaken. The initial duration of the study was 24 weeks, and subjects were offered to enrol into an extension phase of 36 or 48 weeks. The schedule of study procedures for the enrolment, intervention, and assessments for participants is outlined in FIG. 1. Sodium 2-(3-pentylphenyl)acetate was formulated in soft gelatine capsules containing 200 mg of Sodium 2-(3-pentylphenyl)acetate (amorphous powder) per capsule, polyethylene glycol 400, National Formulary (NF), hydrochloric acid (for pH adjustment), and water.

[5] = Subject 826-001-001, 204-day break in treatment

SMILES: CCCCCc1cccc(CC(=O)[O-])c1.[Na+] [sodium 2-(3-pentylphenyl)acetate]
- Urinary Clusterin, Mean Fold Change from Baseline to Week 24 (ALMS patients [1]): 0.66
- Urinary Clusterin, mean change from Baseline to Week 24 (%) (ALMS patients [1]): −34%
- Urinary Cystatin C, Mean Fold Change from Baseline to Week 24 (ALMS patients [1]): 0.75
- Urinary Cystatin C, mean change from Baseline to Week 24 (%) (ALMS patients [1]): −25%
- Urinary KIM-1, Mean Fold Change from Baseline to Week 24 (ALMS patients [1]): 0.67
- Urinary KIM-1, mean change from Baseline to Week 24 (%) (ALMS patients [1]): −33%
- Urinary MCP-1, Mean Fold Change from Baseline to Week 24 (ALMS patients [1]): 0.85
- Urinary MCP-1, mean change from Baseline to Week 24 (%) (ALMS patients [1]): −15%
- Urinary Osteopontin, Mean Fold Change from Baseline to Week 24 (ALMS patients [1]): 0.82
- Urinary Osteopontin, mean change from Baseline to Week 24 (%) (ALMS patients [1]): −18%
- Change from Baseline Basal SAX T1, Mean (ALMS patients [2]; EP Week 36 (Week 60), N=4): -84.75 ms
- Change from Baseline Basal SAX T1, Median (ALMS patients [2]; EP Week 36 (Week 60), N=4): -80.50 ms
- Change from Baseline Mid SAX T1, Mean (ALMS patients [2]; EP Week 36 (Week 60), N=4): -54.63 ms
- Change from Baseline Mid SAX T1, Median (ALMS patients [2]; EP Week 36 (Week 60), N=4): -51.00 ms
- Change from Baseline Basal SAX T1, Mean (ALMS patients [2]; Week 24, N=9): -10.67 ms
- Change from Baseline Basal SAX T1, Median (ALMS patients [2]; Week 24, N=9): -1.50 ms
- Change from Baseline Mid SAX T1, Mean (ALMS patients [2]; Week 24, N=9): -4.11 ms
- Change from Baseline Mid SAX T1, Median (ALMS patients [2]; Week 24, N=9): 0.00 ms
- mean decrease in Basal SAX T1 from baseline (ALMS patients [2]; after 60 weeks of treatment, p=0.0274): 84.75 ms
- mean decrease in Mid SAX T1 from baseline (ALMS patients [2]; after 60 weeks of treatment, p=0.0349): 54.63 ms
- subjects in whom NAFLD fibrosis score decreased or did not change from baseline (ALMS patients [3]; 7/12 subjects): 58.3%
- Change from Baseline NAFLD Score with an FPG > 5.6 mmol/L, Mean (SD) (ALMS patients [3]; EP Week 12 (Week 36), N=10): −0.39 (0.683)
- Change from Baseline NAFLD Score with an FPG > 5.6 mmol/L, Median (ALMS patients [3]; EP Week 12 (Week 36), N=10): −0.69
- Change from Baseline NAFLD Score with an FPG > 5.6 mmol/L, Mean (SD) (ALMS patients [3]; EP Week 24 (Week 48), N=9): −0.34 (0.758)
- Change from Baseline NAFLD Score with an FPG > 5.6 mmol/L, Median (ALMS patients [3]; EP Week 24 (Week 48), N=9): −0.28
- Change from Baseline NAFLD Score with an FPG > 5.6 mmol/L, Mean (SD) (ALMS patients [3]; EP Week 36 (Week 60), N=9): −0.16 (0.684)
- Change from Baseline NAFLD Score with an FPG > 5.6 mmol/L, Median (ALMS patients [3]; EP Week 36 (Week 60), N=9): −0.14
- increase in NAFLD fibrosis score from baseline (ALMS patients [3]; [5]): 0.7
- Change from Baseline NAFLD Score with an FPG > 5.6 mmol/L, Mean (SD) (ALMS patients [3]; Week 12, N=11): −0.35 (0.582)
- Change from Baseline NAFLD Score with an FPG > 5.6 mmol/L, Median (ALMS patients [3]; Week 12, N=11): −0.34
- Change from Baseline NAFLD Score with an FPG > 5.6 mmol/L, Mean (SD) (ALMS patients [3]; Week 24, N=9): 0.16 (0.446)
- Change from Baseline NAFLD Score with an FPG > 5.6 mmol/L, Median (ALMS patients [3]; Week 24, N=9): 0.21
- NAFLD Fibrosis Score in Subjects with an FPG > 5.6 mmol/L (ALMS patients [3]; EP Week 12 (Week 36)): −1.9 and −3.1 and −3.8 (4×) and −1.6 and −1.2 and 0.2 and −3.6
- NAFLD Fibrosis Score in Subjects with an FPG > 5.6 mmol/L (ALMS patients [3]; EP Week 24 (Week 48)): −1.9 and −4.4 and −3.0 and −3.8 and −0.8 and −1.0 and −3.1 and 0.5 and −4.2
- NAFLD Fibrosis Score in Subjects with an FPG > 5.6 mmol/L (ALMS patients [3]; EP Week 36 (Week 60)): −1.5 and −3.7 and −2.9 (2×) and −4.2 and −1.1 and 0.2 and −3.4 and −3.8
- NAFLD Fibrosis Score in Subjects with an FPG > 5.6 mmol/L (ALMS patients [3]; Week 12): −2.5 and −1.8 and −3.9 (2×) and −3.1 and −1.4 and −0.8 (2×) and −3.3 and 0.6 and −4.3
- NAFLD Fibrosis Score in Subjects with an FPG > 5.6 mmol/L (ALMS patients [3]; Week 24): −1.5 and −1.9 and −2.7 (2×) and −3.8 and −0.2 and −2.9 and −1.0 and −3.7
- Change from Baseline Fasting Insulin, Mean (ALMS patients [4]; EP Week 12 (Week 36), N=10): -920.20 pmol/L
- Change from Baseline Fasting Insulin, Median (ALMS patients [4]; EP Week 12 (Week 36), N=10): -53.50 pmol/L
- Change from Baseline Fasting Insulin, Mean (ALMS patients [4]; EP Week 24 (Week 48), N=9): -1371.78 pmol/L
- Change from Baseline Fasting Insulin, Median (ALMS patients [4]; EP Week 24 (Week 48), N=9): -24.00 pmol/L
- Change from Baseline Fasting Insulin, Mean (ALMS patients [4]; EP Week 36 (Week 60), N=8): -1191.63 pmol/L
- Change from Baseline Fasting Insulin, Median (ALMS patients [4]; EP Week 36 (Week 60), N=8): 7.00 pmol/L
- Change from Baseline Fasting Insulin, Mean (ALMS patients [4]; EP Week 48 (Week 72), N=3): -3933.00 pmol/L
- Change from Baseline Fasting Insulin, Median (ALMS patients [4]; EP Week 48 (Week 72), N=3): 193.00 pmol/L
- increase in fasting insulin from baseline (ALMS patients [4]; [5]): 420 pmol/L
- decrease of fasting insulin from baseline (ALMS patients [4]; after 24 weeks): ~30%
- decrease of fasting insulin from baseline (ALMS patients [4]; after 72 weeks): > 96%
- increase in fasting insulin from baseline (ALMS patients [4]; Subject 826-001-004, 30-day break in treatment): 298 pmol/L
- increase in fasting insulin from baseline (ALMS patients [4]; Subject 826-001-007, 32-day break in treatment): 1970 pmol/L
- increase in fasting insulin from baseline (ALMS patients [4]; Subject 826-001-013, 30-day break in treatment): 1160 pmol/L
- Change from Baseline Fasting Insulin, Mean (ALMS patients [4]; Week 12, N=12): -18.92 pmol/L
- Change from Baseline Fasting Insulin, Median (ALMS patients [4]; Week 12, N=12): 9.00 pmol/L
- Change from Baseline Fasting Insulin, Mean (ALMS patients [4]; Week 24, N=12): -339.08 pmol/L
- Change from Baseline Fasting Insulin, Median (ALMS patients [4]; Week 24, N=12): -86.00 pmol/L
- Fasting Insulin (ALMS patients [4]; by-subject listing, ALMS subjects, EP Week 48 (Week 72)): 460 pmol/L and 600 pmol/L and 303 pmol/L
